# According to ChEMBL document CHEMBL5154916, “Multiparameter Optimization of Naphthyridine Derivatives as Selective α5-GABAA Receptor Negative Allosteric Modulators” (J Med Chem, 2022):
# Tests used:
# [1] = biological target: T1, GABA-A receptor; alpha-5/beta-3/gamma-2 (Homo sapiens, UniProt P18507+P28472+P31644); assay: Displacement of [3H]Ro151788 from human recombinant alpha5beta3gamma2 GABAA receptor stably expressed in HEK293 cell membrane assessed as inhibition constant by radioligand binding assay; format: cell membranes
# T1 sequence (P18507 whole entry): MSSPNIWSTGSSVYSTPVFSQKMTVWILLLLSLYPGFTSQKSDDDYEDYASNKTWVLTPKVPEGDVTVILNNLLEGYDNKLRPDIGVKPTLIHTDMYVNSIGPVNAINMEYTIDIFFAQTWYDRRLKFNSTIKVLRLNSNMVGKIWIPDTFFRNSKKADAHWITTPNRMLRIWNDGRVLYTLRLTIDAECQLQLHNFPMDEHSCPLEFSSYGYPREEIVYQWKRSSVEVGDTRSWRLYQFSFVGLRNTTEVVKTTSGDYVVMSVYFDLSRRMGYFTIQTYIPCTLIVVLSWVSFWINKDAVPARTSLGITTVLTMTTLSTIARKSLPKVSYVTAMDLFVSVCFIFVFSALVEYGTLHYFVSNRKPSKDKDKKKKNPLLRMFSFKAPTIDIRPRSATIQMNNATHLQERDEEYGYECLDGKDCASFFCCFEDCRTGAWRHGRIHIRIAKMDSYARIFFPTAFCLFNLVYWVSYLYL
# T1 sequence (P28472 whole entry): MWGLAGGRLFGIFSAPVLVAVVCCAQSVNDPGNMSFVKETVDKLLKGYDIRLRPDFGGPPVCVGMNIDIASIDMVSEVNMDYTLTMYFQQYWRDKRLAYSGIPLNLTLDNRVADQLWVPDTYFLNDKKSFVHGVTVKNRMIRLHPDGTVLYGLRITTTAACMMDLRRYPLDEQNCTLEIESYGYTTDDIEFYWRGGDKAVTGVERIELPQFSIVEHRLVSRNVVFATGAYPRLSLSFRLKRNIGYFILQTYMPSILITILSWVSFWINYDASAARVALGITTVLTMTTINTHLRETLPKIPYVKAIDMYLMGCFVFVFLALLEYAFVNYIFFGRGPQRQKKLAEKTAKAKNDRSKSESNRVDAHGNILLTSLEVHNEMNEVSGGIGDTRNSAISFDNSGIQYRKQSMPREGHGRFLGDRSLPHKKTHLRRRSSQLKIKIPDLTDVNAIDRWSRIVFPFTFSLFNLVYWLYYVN
# T1 sequence (P31644 whole entry): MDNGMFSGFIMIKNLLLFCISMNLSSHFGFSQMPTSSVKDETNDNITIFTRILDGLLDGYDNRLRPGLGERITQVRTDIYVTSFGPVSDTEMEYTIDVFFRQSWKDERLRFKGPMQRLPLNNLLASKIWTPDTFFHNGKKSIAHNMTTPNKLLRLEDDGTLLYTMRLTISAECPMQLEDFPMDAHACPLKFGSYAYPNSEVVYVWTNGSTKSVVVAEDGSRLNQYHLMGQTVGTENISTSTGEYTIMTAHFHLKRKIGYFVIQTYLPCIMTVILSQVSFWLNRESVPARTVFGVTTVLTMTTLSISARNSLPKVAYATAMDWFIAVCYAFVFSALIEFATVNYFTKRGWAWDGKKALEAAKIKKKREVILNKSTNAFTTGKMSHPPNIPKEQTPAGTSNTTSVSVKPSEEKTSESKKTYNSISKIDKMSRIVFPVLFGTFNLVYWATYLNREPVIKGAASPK
# [2] = biological target: T2, GABA-A receptor; alpha-5/beta-3/gamma-2 (Homo sapiens) (UniProt P18507+P28472+P31644); assay: Negative allosteric modulation activity at human recombinant alpha5beta3gamma2 GABAA receptor stably expressed in HEK293 cells assessed as modulation at alpha5 subunit at 1 uM by Patch clamp method; format: cell-based; conditions: filed as negative allosteric modulator
# [3] = biological target: T2, GABA-A receptor; alpha-5/beta-3/gamma-2 (Homo sapiens); assay: Negative allosteric modulation activity at human recombinant alpha5beta3gamma2 GABAA receptor stably expressed in HEK293 cells assessed as modulation at alpha5 subunit at 10 uM by Patch clamp method; format: cell-based; conditions: filed as negative allosteric modulator
# [4] = biological target: GABA-A receptor; alpha-1/beta-3/gamma-2 (Homo sapiens) (UniProt P14867+P18507+P28472); assay: Negative allosteric modulation activity at human recombinant alpha1beta3gamma2 GABAA receptor stably expressed in HEK293 cells assessed as modulation at alpha1 subunit at 10 uM by Patch clamp method; format: cell-based; conditions: filed as negative allosteric modulator
# [5] = biological target: Voltage-gated inwardly rectifying potassium channel KCNH2 (Homo sapiens, UniProt Q12809); assay: Inhibition of hERG expressed in CHO cells stably at -80 mV holding potential by automated patch clamp method; format: toxicity, cell-based
# Voltage-gated inwardly rectifying potassium channel KCNH2, sequence (Q12809 whole entry): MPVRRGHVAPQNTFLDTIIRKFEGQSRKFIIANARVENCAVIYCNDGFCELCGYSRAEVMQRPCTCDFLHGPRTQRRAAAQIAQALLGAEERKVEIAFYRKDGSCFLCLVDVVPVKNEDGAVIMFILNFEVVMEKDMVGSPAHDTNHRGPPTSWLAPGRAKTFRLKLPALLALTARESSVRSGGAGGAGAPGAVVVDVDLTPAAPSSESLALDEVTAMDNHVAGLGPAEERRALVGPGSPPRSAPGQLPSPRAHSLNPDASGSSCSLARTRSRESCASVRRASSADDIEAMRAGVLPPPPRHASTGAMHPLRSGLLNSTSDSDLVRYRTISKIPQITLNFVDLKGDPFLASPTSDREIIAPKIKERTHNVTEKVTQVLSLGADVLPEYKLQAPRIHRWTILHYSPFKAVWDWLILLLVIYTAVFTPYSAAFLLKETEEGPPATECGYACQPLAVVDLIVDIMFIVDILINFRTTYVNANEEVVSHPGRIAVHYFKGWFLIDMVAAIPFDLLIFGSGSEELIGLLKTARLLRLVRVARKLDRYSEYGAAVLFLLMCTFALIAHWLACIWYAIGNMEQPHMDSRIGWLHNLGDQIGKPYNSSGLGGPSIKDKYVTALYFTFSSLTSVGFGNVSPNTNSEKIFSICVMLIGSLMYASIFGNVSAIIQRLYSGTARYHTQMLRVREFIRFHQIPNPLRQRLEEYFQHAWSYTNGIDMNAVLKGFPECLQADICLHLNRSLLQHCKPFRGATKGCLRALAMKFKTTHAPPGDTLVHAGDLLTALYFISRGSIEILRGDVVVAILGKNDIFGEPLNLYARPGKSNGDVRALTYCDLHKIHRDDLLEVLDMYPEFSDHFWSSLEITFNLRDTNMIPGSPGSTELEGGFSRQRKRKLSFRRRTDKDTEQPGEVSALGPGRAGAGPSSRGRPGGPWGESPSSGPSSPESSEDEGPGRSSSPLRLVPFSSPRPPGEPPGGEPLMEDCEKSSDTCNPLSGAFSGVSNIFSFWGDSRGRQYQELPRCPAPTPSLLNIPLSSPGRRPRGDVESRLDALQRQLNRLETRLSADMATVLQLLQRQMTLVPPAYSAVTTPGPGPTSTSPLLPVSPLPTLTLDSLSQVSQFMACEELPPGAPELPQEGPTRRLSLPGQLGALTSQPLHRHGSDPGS
# [6] = Metabolic stability in human liver microsomes assessed as intrinsic clearance at 2.5 uM; format: ADME, Microsome; conditions: read-out: CLH
# [7] = Metabolic stability in Wistar rat liver microsomes assessed as intrinsic clearance at 2.5 uM; format: ADME, Microsome; conditions: read-out: CLH
SMILES,Ki [1] [nM],Activity [2] [%],Activity [3] [%],microsomal CLint at 2.5 µM [6] [µL/min/mg],microsomal CLint at 2.5 µM [7] [µL/min/mg],Activity [4] [%],IC50 [5] [nM]
Cc1onc(-c2ccc(F)cc2)c1COc1ccc2c(n1)CCN(CC1CCCO1)C2=O (stereo not drawn),23,-29,-28,–,–,-6,2900
Cc1onc(-c2ccc(F)cc2)c1COc1ccc2c(c1)OCC(=O)N2C,14,-16,–,33,381,–,–
Cc1onc(-c2ccc(F)cc2)c1COc1ccc2c(n1)CCN(C(=O)N1CCCCC1)C2,49,–,–,107,359,–,10000
Cc1onc(-c2ccc(F)cc2)c1COc1ccc(C(=O)N2CCS(=O)(=O)CC2)cn1 [BASMISANIL],4.4,-24,-25,7.5,22,-2,–
Cc1onc(-c2ccc(F)cc2)c1COc1cc2c(cn1)C(=O)NCC2,0.49,15,6,–,–,–,–
Cc1onc(-c2ccc(F)cc2)c1COc1ccc2c(n1)CCN(C(=O)c1ccno1)C2,4.6,-13,-32,67,245,–,6400
Cc1onc(-c2ccc(F)cc2)c1COc1ccc2c(n1)CCN(C(=O)N1CCOCC1)C2,4.6,-15,-39,32,142,–,9100
Cc1nnn(-c2ccc(F)cc2)c1COc1ccc2c(n1)CCN(C(=O)C1CC1)C2,49,–,–,53,99,–,–
Cc1onc(-c2ccc(F)cc2)c1COc1ccc2c(c1)CCC(=O)N2C,13,-6,-10,–,–,–,–
Cc1onc(-c2ccc(F)cc2)c1COc1ccc2c(n1)CCN(Cc1ccco1)C2=O,21,-14,-31,85,365,–,3500
CCC(=O)N1CCc2nc(OCc3c(C)nnn3-c3ccc(F)cc3)ccc2C1,46,–,–,48,92,–,–
Cc1onc(-c2ccc(F)cc2)c1COc1ccc2c(n1)CCN(C(=O)C1CCCO1)C2 (stereo not drawn),9.9,–,–,42,210,–,–
Cc1onc(-c2ccc(F)cc2)c1COc1ccc2c(c1)CCNC2=O,10,-6,-7,10,108,–,–

# Further lines, with some results ahead:
Ki [1] [nM],Activity [2] [%],Activity [3] [%],microsomal CLint at 2.5 µM [6] [µL/min/mg],microsomal CLint at 2.5 µM [7] [µL/min/mg],SMILES,Activity [4] [%],IC50 [5] [nM]
1.9,-19,-16,74,301,CC(=O)N1CCc2nc(OCc3c(-c4ccc(F)cc4)noc3C)ccc2C1,–,5300
13,-7,-26,57,400,Cc1onc(-c2ccc(F)cc2)c1COc1ccc2c(n1)CCN(C(=O)C1CCC1)C2,–,> 10000
2.7,-22,-42,49,356,Cc1onc(-c2ccc(F)cc2)c1COc1ccc2c(n1)CCN(C(=O)N(C)C)C2,–,8300
30,-16,-35,9,44,Cc1onc(-c2ccc(F)cc2)c1COc1ccc2c(n1)CCN(C(=O)CCS(C)(=O)=O)C2,–,4200
7.3,-12,-36,45,279,Cc1onc(-c2ccc(F)cc2)c1COc1ccc2c(n1)CCN(C(=O)N1CCCC1)C2,–,10000
8.3,-4,-34,71,388,Cc1onc(-c2ccc(F)cc2)c1COc1ccc2c(n1)CCN(C(=O)C1CC1)C2,–,5800
